# Assay results taken from patent US10913781B2, “Pepducin design and use” (Tufts Medical Center, Inc., priority 2011, dated 2021).
# Where two headings read alike, the source gives them in different places. Peptide text beside a SMILES is read from it. * marks the point of attachment. Palmitoyl = CCCCCCCCCCCCCCCC(=O)*
# How the values were obtained:
# [1] = target: T1, PAR1 (Homo sapiens, UniProt P25116); experiment: Migration of primary patient lung tumor cells; assay type: cell-based; design: endogenous in cells; host or cells: A549, HOP62, H1299, H522, H226, HOP92 lung carcinoma lines
# T1 sequence (P25116 22-425): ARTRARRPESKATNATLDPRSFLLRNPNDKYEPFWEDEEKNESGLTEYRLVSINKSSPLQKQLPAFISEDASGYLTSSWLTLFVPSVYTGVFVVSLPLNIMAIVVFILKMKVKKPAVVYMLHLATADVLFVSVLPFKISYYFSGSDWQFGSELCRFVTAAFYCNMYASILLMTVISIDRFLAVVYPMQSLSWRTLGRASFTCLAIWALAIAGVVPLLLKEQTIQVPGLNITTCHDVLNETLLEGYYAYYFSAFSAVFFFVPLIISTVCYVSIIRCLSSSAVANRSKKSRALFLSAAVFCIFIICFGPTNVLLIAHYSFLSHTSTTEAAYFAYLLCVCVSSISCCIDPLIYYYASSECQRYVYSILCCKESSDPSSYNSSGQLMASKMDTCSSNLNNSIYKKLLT
# Description: FIG. 12 illustrates that PAR1 is a promigratory factor in lung cancer cells. (A-F): Inhibition of lung cancer migration in adenocarcinomas A549, HOP62, H1299 and H522, H226 squamous, and HOP92 large cell using PAR1 pepducins. Pepducins at […] (P1pal-7, P1pal-10S, P1pal-i1-11, or negative control P1pal-19EE) were added to the lower well. (G): Cell from primary lung tumors or nonmalignant control were pretreated with PAR1 pepducins and migration was determined (*P<0.05, **P<0.01).
# Further experiments were carried out to determine whether migration of the primary carcinoma cell lines isolated from lung tumors could be inhibited by PAR1 pepducins (FIG. 12G). […] Likewise, the RWJ-56110 small-molecule antagonist of PAR1 (Andrade-Gordon, et al., Proc. Natl Acad Sci USA, 96 (1999), pp. 12257-12262) suppressed up to 55% of the migration of primary lung tumor cells toward NIH-3T3 conditioned media. The PAR1 antagonist pepducin P1pal-7 and P1pal-i1-11 had no effect on the low-expressing PAR1 cell line derived from benign lung tissue, which migrated poorly (FIG. 12G).
# [2] = test system: A549 xenografts; assay type: in vivo, mouse; conditions: mouse, in vivo
# Description: (§1) FIG. 13 illustrates that monotherapy with PAR1-i3 pepducins inhibits tumor progression of A549 xenografts. (A) and (B): A549 mice treated with vehicle, P1pal-7, P1pal-i1-11, P1pal-10S, X1/2-i1, X1/2-i3, or Avastin. Each time point represents the mean±SE. (C): Final tumor volume at the completion of the experiment was calculated as a percentage of untreated vehicle control. (D): Serum-starved A549 adenocarcinoma cells were pretreated with P1pal-7, P1pal-10S, P1pal-i1-11, vehicle, or PD98059 and stimulated with thrombin. VEGF production was assessed by enzyme-linked immunosorbent assay. Data are expressed as mean±SD (*P<0.05, **P<0.01).
# PAR1 expression level is correlated with reduced survival of patients with NSCLC. To define the relative importance of PAR1 in lung tumor progression, in vivo mouse models were used. […] An A549 lung adenocarcinoma xenograft model in nude mice was used to evaluate monotherapy with P1pal-7, P1pal-10S, P1pal-i1-11, or the VEGF antagonist Avastin.
# [3] = test system: VEGF-A production; experiment: Thrombin-dependent VEGF-A production in A549 cells (ELISA); assay type: cell-based, human; conditions: A549, 18 hours thrombin treatment
# Description: as §1
# Because the i3-based P1pal-7 pepducin had similar efficacy as Avastin in suppressing lung tumor growth of A549 xenografts, VEGF-A production was measured in the A549 tumor cells after 18 hours thrombin treatment. […] Unlike in ovarian cancer, no increase was found in PAR1-mediated IL-8 production in A549 cells, consistent with the observed lack of efficacy of CXCR1/2 pepducins in the A549 xenograft models. These xenograft data provide support for the role of a novel PAR1-ERK1/2-VEGF paracrine pathway that is an effective therapeutic target in the A549 adenocarcinoma lung cancer model.
# [4] = Pharmacokinetics of PAR1 pepducins in CF-1 mice, plasma LC/MS/MS; assay type: in vivo, mouse; conditions: for Cmax: read-out: Peak plasma level
# Description: FIG. 14 illustrates pharmacokinetics of PAR1 pepducins. (A): CF-1 mice were injected subcutaneously with P1pal-7 (3 mg/kg, open circles), P1pal-7 (10 mg/kg, closed circles), P1pal-10S (10 mg/kg, gray circles), or P1pal-i1-11 (10 mg/kg, open squares) in 20% dimethyl sulfoxide and blood was collected at indicated time points (n=3). Pepducin levels in plasma were quantified with LC/MS/MS. (B): Daily (D1 to D6) plasma levels of P1pal-7 after subcutaneous injection of 10 mg/kg P1pal-7 were measured at 1 hour (open circles) and 24 hours (open squares).
# Pharmacokinetics of plasma levels of P1pal-7, P1pal-10S, and P1pal-i1-11 at 30 minutes, and at 1, 2, 4, 6, 8, and 16 hours was measured by LC/MS/MS to determine steady-state pepducin drug levels and the rate of elimination from mice. Subcutaneous injections of P1pal-7 (3 mg/kg or 10 mg/kg) into wild-type CF-1 mice (25 to 30 g) was followed by blood collection at various time points from the vena cava. […] Residual P1pal-7 levels were 10 nmol/L at the 16-hour time point. After the 4-hour plateau, the elimination rate was linear from 4 to 16 hours. The peak plasma level of 3 mg/kg P1pal-7 reached 0.6 μmol/L at 2 hours and elimination was linear between 2 hours and 16 hours. P1pal-10S (10 mg/kg) gave similar peak plasma level of 1.0 μmol/L as P1pal-7 (10 mg/kg) at 1 hour.
# Lastly, the peak plasma level of P1pal-7 (10 mg/kg) was measured before and 1 hour after once-daily subcutaneous injection over 6 days to determine whether the peak plasma levels were consistent on daily administration.
# [5] = target: T1, PAR1; experiment: ERK1/2 phosphorylation in A549 cells (thrombin or […]), Western blot; assay type: cell-based; design: endogenous in cells; host or cells: A549, HOP62, H1299, H522, H226, HOP92 lung carcinoma lines
# Description: FIG. 9 illustrates that differential inhibition of PAR1-ERK activation by i3- and i1-derived PAR1 pepducins. (A-C): Western blots of lysates from A549 cells untreated, or treated with thrombin, SLIGKV (SEQ ID NO:29), or AYPGKF (SEQ ID NO:5). Indicated samples were pretreated with various concentrations (0.1 to 3 μmol/L) of P1pal-7, P1pal-10S, or P1pal-i1-11 before stimulation and immunoblotted with anti-phospho-ERK. (D-F): Quantification of the Western blots in (A-C) were conducted by densitometry and results are expressed relative to maximum (fold max) phosphorylation of pERK.
# (B): A549 cells stimulated with 10 μM […] over 2 h. A549 cells pretreated with 0.1 μM P1pal-7 and stimulated with 10 μM […] (SEQ ID NO:30) for 5 min. Total ERK was used as a loading control.
# Last, there has been a great deal of interest in understanding the mechanism of PAR1-mediated activation of MAP kinase cascade and PAR1-dependent cellular growth and differentiation, proliferation and gene transcription. […] The effects of i1 versus i3 PAR1 pepducins on ERK1/2 activation were examined in the A549 lung adenocarcinoma cell line. […] Inhibition experiments with a range of pepducin concentrations (0.1-3 μM) were conducted. […] The […] (SEQ ID NO:30) peptide gave a rapid and transient ERK1/2 phosphorylation signal that peaked at 5-15 min after stimulation. […] To determine the specificity of the PAR1 pepducin inhibitors, their effects on the closely related PAR2 and PAR4 receptors were also tested.
# [6] = test system: A549, HOP62, and HOP92 lung carcinoma cell lines; experiment: Cytotoxicity/cell viability of lung carcinoma cells (MIT assay); assay type: cell-based, human; conditions: 3-day period
Inhibition of migration of primary lung tumor cells ([1]; primary lung tumors),Effect on migration of low-expressing PAR1 cell line derived from benign lung tissue [1],Duration of peak plasma level ([4]; 10 mg/kg s.c.),"Cmax ([4]; CF-1, mouse, plasma, sc, 3 mg/kg s.c.)","level at time molar at 6 h ([4]; CF-1, mouse, plasma, sc, 10 mg/kg s.c., read-out: Plasma level at the 6-hour time point)","level at time molar at 16 h ([4]; CF-1, mouse, plasma, sc, 10 mg/kg s.c., read-out: Residual plasma level at the 16-hour time point)","Accumulation in plasma after daily dosing ([4]; daily subcutaneous dosing, mouse)","Cmax ([4]; mouse, plasma, sc, 10 mg/kg s.c., CF-1 mice)","Block of PRSFLLRN-induced phospho-ERK signal ([5]; 0.1 μM pepducin, 10 μM PRSFLLRN, 5 min, A549)","Effect on thrombin-induced ERK1/2 phosphorylation ([5]; A549 cells, pepducin 0.1-3 μM)",Structure (SMILES),Inhibition of tumor progression/growth (final tumor volume vs vehicle) [2],Effect on thrombin-dependent VEGF-A production [3],Sensitivity of A549 cells (cytotoxicity) [6]
up to 55%,–,–,–,–,–,–,–,–,–,"NCC[C@H](NC(=O)[C@H](Cc1ccc(F)c(F)c1)NC(=O)Nc1ccc2c(CN3CCCC3)cn(Cc3c(Cl)cccc3Cl)c2c1)C(=O)NCc1ccccc1 [RWJ-56110, reference compound]",–,–,–
–,no effect,4 h,600 nM,200 nM,10 nM,does not accumulate in plasma,1100 nM,completely block,complete inhibition,CCCCCCCCCCCCCCCC(=O)N[C@@H](CCCCN)C(=O)N[C@@H](CCCCN)C(=O)N[C@@H](CO)C(=O)N[C@@H](CCCNC(=N)N)C(=O)N[C@@H](C)C(=O)N[C@@H](CC(C)C)C(=O)N[C@@H](Cc1ccccc1)C(N)=O [P1pal-7] (Palmitoyl-KKSRALF-NH2),75%,completely blocked,most sensitive
